Results on six compounds are retold here after DBAASP.

SMILES strings stand for the structures. Values after ≈ are worked out from the molar mass of the structure shown.

Test systems include Bacillus subtilis PS832; Escherichia coli DL7; Botrytis cinerea 101; Escherichia coli AS1.349; Bacillus cereus AS1.126; Enterococcus faecium.
Common to all, as to test: ≥ marks a high value that may be exact or a test limit, other limits are often not marked, values filed in µg/mL are converted to µM
The test system of test [1] is Escherichia coli ATCC 25922.
Test [2] relates to Staphylococcus aureus MRSA-16.
In test [3] the test system is Staphylococcus aureus MRSA-G.
For test [4], the system named is Staphylococcus epidermidis ATCC 12228.
For test [5], the system named is Klebsiella aerogenes ATCC 13048.
For test [6], the system named is Corynebacterium glutamicum ATCC 13032.
Test [7] deals with Staphylococcus aureus ATCC 9144.
The test system of test [8] is Pseudomonas aeruginosa ATCC 10419.
The test system of test [9] is Pseudomonas aeruginosa ATCC 27853.
Test [10] deals with Pseudomonas aeruginosa LC.
The test system of test [11] is Pseudomonas aeruginosa LCCE.
For test [12], the system named is Staphylococcus aureus ATCC 29213.
Test [13] relates to Pseudomonas aeruginosa ATCC 21625.
In test [14] the test system is Pseudomonas aeruginosa ATCC 21630.
Test [15] has as its system Pseudomonas aeruginosa LCCI.
In test [16] the test system is Pseudomonas aeruginosa LCGE.
For test [17], the system named is Salmonella enterica subsp. enterica serovar Typhimurium C77-31.
The subject of test [18] is Enterococcus faecium CGMCC 1.2334.
Test [19] concerns Pseudomonas aeruginosa CGMCC 1.860.
Test [20] relates to Staphylococcus aureus AS1.72.
Test [21] relates to Enterococcus faecalis CGMCC 1.595.
Test [22] relates to Lactococcus lactis AS1.1690.
The subject of test [23] is Klebsiella pneumoniae subsp. pneumoniae CGMCC 1.176.
Test [24] deals with Enterobacter cloacae CGMCC 1.58.
Test [25] concerns Acinetobacter baumannii CICC 22934.
For test [26], the system named is Proteus mirabilis CICC 22931.
Test [27] has as its system Klebsiella aerogenes CGMCC 1.876.
Test [28] deals with Staphylococcus aureus ATCC 25923.
Test [29] relates to Staphylococcus aureus K35.
The subject of test [30] is Enterococcus faecalis ATCC 29212.
In test [31] the test system is Staphylococcus aureus K52.

A word on the MIC: it is the lowest concentration that inhibits growth of the organism. Low values mean greater potency, high ones weaker potency.

Regarding `CC[C@H](C)[C@H](NC(=O)[C@H](C)NC(=O)[C@H](CCCCN)NC(=O)[C@@H](NC(=O)CNC(=O)CNC(=O)[C@H](Cc1c[nH]c2ccccc12)NC(=O)[C@H](Cc1ccccc1)NC(=O)[C@H](CCCCN)NC(=O)[C@H](CCCCN)NC(=O)[C@H](Cc1ccccc1)NC(=O)[C@@H](N)CO)C(C)C)C(=O)N[C@@H](Cc1ccccc1)C(=O)N[C@@H](CCCCN)C(=O)NCC(=O)N[C@@H](C)C(=O)N[C@@H](CCCN=C(N)N)C(=O)N[C@@H](CCCCN)C(=O)NCC(=O)N[C@@H](Cc1c[nH]c2ccccc12)C(=O)N[C@@H](CCCCN)C(=O)O` [SFKKFWGGVKAIFKGARKGWK], the MIC in test [1] was 1 µM (≈ 2.43 µg/mL); in test [2], no less than 32 µM; in test [3], no less than 32 µM.

Consider `CC(C)C[C@H](NC(=O)CNC(=O)[C@H](C)NC(=O)[C@H](CCCN=C(N)N)NC(=O)[C@H](Cc1cnc[nH]1)NC(=O)[C@H](C)NC(=O)[C@@H](N)CC(=O)O)C(=O)N[C@@H](CCC(N)=O)C(=O)N[C@@H](Cc1ccccc1)C(=O)N1CCC[C@H]1C(=O)N[C@H](C(=O)NCC(=O)N[C@@H](CCCN=C(N)N)C(=O)N[C@H](C(=O)N[C@@H](Cc1cnc[nH]1)C(=O)N[C@@H](CCCN=C(N)N)C(=O)N[C@@H](CC(C)C)C(=O)N[C@@H](CC(C)C)C(=O)N[C@@H](CCCN=C(N)N)C(=O)N[C@@H](CCCCN)C(N)=O)C(C)C)C(C)C` [DAHRAGLQFPVGRVHRLLRK], for which the MIC against Bacillus subtilis PS832 was 2 µM (≈ 4.65 µg/mL); in [4] it was 4 µM (≈ 9.3 µg/mL); in [5], no less than 32 µM; against Escherichia coli DL7, 16 µM (≈ 37.2 µg/mL).

Consider `CC[C@H](C)[C@H](NC(=O)[C@H](CCCCN)NC(=O)[C@@H](NC(=O)[C@H](CCCN=C(N)N)NC(=O)[C@H](C)NC(=O)[C@H](CCC(=O)O)NC(=O)[C@H](CCC(=O)O)NC(=O)[C@@H]1CCCN1C(=O)[C@@H](N)CO)C(C)C)C(=O)N[C@@H](CC(C)C)C(=O)N[C@H](C(=O)N[C@@H](C)C(=O)N[C@H](C(=O)N1CCC[C@H]1C(=O)N[C@@H](CCC(=O)O)C(=O)N[C@@H](CCSC)C(=O)N[C@@H](CCCN=C(N)N)C(=O)N[C@@H](CCC(=O)O)C(=O)N[C@@H](CCC(=O)O)C(=O)N[C@@H](CC(=O)O)C(=O)N[C@@H](CC(C)C)C(=O)N[C@@H](CO)C(=O)N[C@@H](CCC(=O)O)C(=O)N[C@@H](CCC(=O)O)C(=O)O)[C@@H](C)CC)[C@@H](C)O` [SPEEARVKILTAIPEMREEDLSEE], for which the MIC in test [1] is greater than 100 µM; with Botrytis cinerea 101 it was no less than 100 µM; in [6], no less than 100 µM; in test [7] it was no less than 100 µM.

For the compound `CC[C@H](C)[C@H](NC(=O)[C@H](CCCCN)NC(=O)[C@H](CCCCN)NC(=O)[C@H](CC(C)C)NC(=O)[C@H](CCCN=C(N)N)NC(=O)[C@H](CCCCN)NC(=O)[C@H](CCCN=C(N)N)NC(=O)[C@H](CCCCN)NC(=O)[C@H](CCCCN)NC(=O)[C@H](CCCCN)NC(=O)[C@H](CCCN=C(N)N)NC(=O)[C@H](CC(C)C)NC(=O)[C@H](CCCN=C(N)N)NC(=O)[C@H](CCCN=C(N)N)NC(=O)[C@H](Cc1ccccc1)NC(=O)[C@@H](N)CCCN=C(N)N)C(N)=O` [RFRRLRKKKRKRLKKI], the MIC in test [8] was no less than 256 µM; in test [1] it was 128 µM (≈ 283 µg/mL); in test [4], 128 µM (≈ 283 µg/mL); in test [9], 128 µM (≈ 283 µg/mL); in [10], no less than 256 µM; in [11], no less than 256 µM. Moreover, the MIC in test [12] is 128 µM (≈ 283 µg/mL); in test [13], no less than 256 µM; in test [14], no less than 256 µM; in test [15], no less than 256 µM; in test [16], no less than 256 µM; in test [17] it was no less than 256 µM.

Take `CC(C)C[C@H](NC(=O)[C@H](CC(C)C)NC(=O)[C@H](Cc1ccccc1)NC(=O)[C@H](CCCN=C(N)N)NC(=O)[C@H](CCCN=C(N)N)NC(=O)[C@H](CC(C)C)NC(=O)[C@H](Cc1cnc[nH]1)NC(=O)[C@H](CCCN=C(N)N)NC(=O)[C@H](CC(C)C)NC(=O)[C@@H](NC(=O)[C@H](C)NC(=O)[C@@H](N)CO)C(C)C)C(=O)N[C@@H](CCCN=C(N)N)C(=O)N[C@@H](CCCCN)C(=O)N[C@@H](Cc1cnc[nH]1)C(=O)N[C@@H](CCCN=C(N)N)C(=O)N[C@@H](CCCCN)C(=O)N[C@@H](Cc1cnc[nH]1)C(=O)O` [SAVLRHLRRFLLRKHRKH]: the MIC in [18] was 3.13 µM (≈ 7.27 µg/mL); in test [19], no less than 100 µM; in test [20], 1.56 µM (≈ 3.63 µg/mL); in [21], 3.13 µM (≈ 7.27 µg/mL); in test [22], 4.69 µM (≈ 10.9 µg/mL); in test [23], no less than 100 µM. The MIC is no less than 100 µM in [24]; no less than 100 µM in [25]; no less than 100 µM in test [26]; no less than 100 µM in test [27]; no less than 100 µM against Escherichia coli AS1.349; 1.56 µM (≈ 3.63 µg/mL) in the test with Bacillus cereus AS1.126.

As to `CC[C@H](C)[C@H](NC(=O)CNC(=O)[C@H](CO)NC(=O)[C@H](CC(C)C)NC(=O)[C@@H](NC(=O)[C@H](CCCN=C(N)N)NC(=O)CNC(=O)[C@@H](NC(=O)[C@H](CC(C)C)NC(=O)[C@@H]1CCCN1C(=O)[C@H](CC(C)C)NC(=O)[C@@H](N)CCCCN)[C@@H](C)CC)C(C)C)C(=O)N[C@@H](CC(C)C)C(N)=O` [KLPLIGRVLSGIL], the MIC in test [28] was 83.7 µM (≈ 115 µg/mL); in test [29] it was no less than 58.2 µM; in [30], greater than 168 µM; with Enterococcus faecium, no less than 116 µM; in [31], no less than 58.2 µM.
